Measured values from patent US20090117167A1 (AlgoRx, priority 2002, published 2009).
Several values for one entry are separate records, joined by “and”; a condition that tells them apart may be missing. Equal entries are not always repeated.

Columns and labels:
[1] = test system: animal models of neuropathic pain (spinal nerve ligation); conditions: administered locally; cited from earlier work
[2] = test system: animal models of inflammatory pain (formalin test); conditions: administered locally; cited from earlier work
[3] = test system: subjects with osteoarthritis of the knee; test: Osteoarthritis of the knee safety study: safety and tolerability of intra-articular capsaicin; assay type: in vivo, human; conditions: for patients reporting transient burning pain / post injection hyperalgesia after instillation: 4 subjects
Description: The primary objective of the study was to evaluate the safety and tolerability of intra-articular capsaicin, when co-administered with intra-articular local anesthetic, compared to placebo, in subjects with end-stage osteoarthritis of the knee, already scheduled to receive knee replacements.
The study was designed to include 16 evaluation subjects. […] Sixteen subjects completed the study.
Patients were treated randomly and in double-blind fashion in four treatment groups, with each group having a progressively longer interval between the intra-articular administration of study medication and subsequent total knee replacement (2, 4, 7, and 14 days). […] Gross and microscopic pathology analysis was completed for each treatment group before the next treatment group was treated.
(§1) Each subject had 3 study visits: a Screening Day (Day −7 to −1), the Treatment Day (Day 0), and a Post-Treatment Day (scheduled for Day +2, +4, +7, or +14). On the Treatment Day the subject was randomized, pre-treatment evaluation was performed. The patients were brought into the procedure room, and a VAS pain score was taken (0 mm-no pain, 100 mm-extreme pain). Once the patient had marked his or her pain on the card, he/she was prepped for knee cannulation. Once the cannula was placed, the patient received by intra-articular infiltration, 3 mg/kg (maximum dose of 200 mg) of 2% lignocaine into the knee scheduled to be replaced.
(§2) VAS pain scores as well as verbal reports were taken immediately following administration, as well as prior to knee replacement surgery. No subjects discontinued from the study due to adverse events.

[4] = test system: subjects undergoing transpositional osteotomy (bunionectomy); test: Bunionectomy efficacy study: VAS pain score and rescue medication; assay type: in vivo, human; conditions: for VAS pain score at operation site: 1000 μg into wound, mean +/- SEM, n = 11
Description: The primary efficacy endpoint was the proportion of subjects in each treatment group requiring opioid analgesia in the first 24 hours post-operatively. The proportions were compared amongst treatment groups using the Cochran-Haenszel test. Secondary efficacy end points included: i) proportion of subjects in each treatment group requiring opioid analgesia in the first 36 hour period post-operatively (Similarly, the proportions were compared amongst treatment groups using the Cochran-Haenszel test); ii) proportion of subjects in each treatment group requiring opioid analgesia in the 10 day period post-operatively (Similarly, the proportions were compared amongst treatment groups using the Cochran-Haenszel test); iii) time to first usage of opioid analgesia in each treatment group (a survival analysis approach will be used: the product-limit (Kaplan-Meier) method will be applied to time to first usage of opioid analgesia. The median time to first usage of opioid analgesia will be estimated in both treatment groups. Pairwise comparisons will be performed to test for equality of the survival curves between the 2 treatment groups using both the log-rank and the Wilcoxon test); iv) total usage of analgesia in each treatment group (the total usage of analgesia will be compared by an analysis of variance with treatment and center as independent variables. A pairwise comparison will be performed between the treatment groups); and v) VAS assessment of pain at the site of operation in each treatment group (The VAS score at each time point will be compared by an analysis of variance with treatment and center as independent variables. A pairwise comparison will be performed between the treatment groups). […] The efficacy analysis was performed on the data obtained ten days postoperatively. The safety analysis was performed based on the safety data for the entire study, including the 6 week and 12 week follow-up periods. The blind was broken at the time the efficacy analysis was performed. However, the individual treatment assignment was available to the statistical analysis group only. All other personnel involved in the study, including the Investigator, study monitor and proprietary staff, remained blinded until the entire study was completed.
The study was designed to include 40 evaluation subjects. […] Each subject had six (6) study visits: a Screening Day (Day −28 to −1), an Operation Day (Day 0), and four (4) Follow-up visits (scheduled for Days 3, 10 and weeks 6 and 12).
On Operation Day (Day 0) the following was performed: a) Pre-operation: Prior to the initiation of an ankle block, inclusion/exclusion criteria assessment was performed. […] Immediately prior to wound closure, the Investigator slowly dripped the study medication (4 mL) from a syringe into the wound, ensuring even tissue exposure. The wound was then be closed according to normal practices and procedures.
In the 24 hours following administration of study medication, vital signs (supine pulse rate and blood pressure) were recorded at 1, 2, 4 and 24 hours post administration. VAS assessment of pain at the operation site was performed at 1, 4, 8, 12 and 24 hours post administration. In those instances where VAS measurements coincide with blood sampling procedures, the VAS assessment was performed first. […] The quantity of each blood sample was 10 mL. Laboratory safety assessments, e.g., haematology, biochemistry, urinalysis were performed at 24 hours post administration. Adverse events were spontaneously reported by the subject and recorded. Rescue analgesia medication was provided to the subject if required (initially diclofenac 50 mg, repeated at 8 hourly intervals if necessary). When diclofenac was judged by the Investigator to provide inadequate pain relief then the subject was provided with alfentanil 1 mg, repeated at 6 hourly intervals, if necessary.

[5] = test system: rats; conditions: systemic, cited from earlier work
[6] = organic solvents; cited from earlier work
[7] = design: species or system human; conditions: in vivo
Description: The pharmacokinetic parameters of Cmax, Tmax, AUC(0-tlast) and t½ were evaluated.

[8] = test system: subjects with osteoarthritis of the knee; test: Osteoarthritis of the knee safety study: VAS pain score at the target knee; assay type: in vivo, human
Description: as §1, §2
On the Post-Treatment Day, study evaluation was performed followed by the scheduled knee replacement, with intra-operative bone and soft tissue biopsies performed for subsequent examination. […] This therefore left the 3 placebo and 9 active patients from the 4 day, 7 day, and 14 day cohorts.

CN(C)CCC=C1c2ccccc2CCc2ccccc21 [amitriptyline]
local antinociceptive action [1]: produced local antinociceptive actions | local antinociceptive action [2]: produced local antinociceptive actions

CNCCCN1c2ccccc2CCc2ccccc21 [desipramine]
local antinociceptive action [1]: produced local antinociceptive actions | local antinociceptive action [2]: produced local antinociceptive actions

COc1cc(CNC(=O)CCCC/C=C/C(C)C)ccc1O [purified capsaicin, N-(4-hydroxy-3-methoxybenzyl)-8-methylnon-trans-6-enamide]
patients reporting transient burning pain / post injection hyperalgesia after instillation ([3]; 10 μg intra-articular after 2% lignocaine): no subjects | patients reporting transient burning pain / post injection hyperalgesia after instillation ([3]; 10 μg intra-articular after 2% lignocaine, listed as capsaicin): 0 of 4 | duration of post-administration (hyper) algesic pain ([3]; 100 μg dose group, individual subject): 9 min | patients reporting transient burning pain / post injection hyperalgesia after instillation ([3]; 100 μg intra-articular after 2% lignocaine): 1 | patients reporting transient burning pain / post injection hyperalgesia after instillation ([3]; 100 μg intra-articular after 2% lignocaine, listed as capsaicin): 1 of 4 | patients reporting transient burning pain / post injection hyperalgesia after instillation ([3]; 300 μg intra-articular after 2% lignocaine): 4 | patients reporting transient burning pain / post injection hyperalgesia after instillation ([3]; 300 μg intra-articular after 2% lignocaine, listed as capsaicin): 4 of 4 | effects on laboratory safety parameters or vital signs ([3]; 10-300 μg): no treatment related effects | effects on soft tissue, cartilage, or bone upon histopathological examination ([3]; 10-300 μg): no treatment related effects | signs of erythema, edema, or hemorrhage at the site of injection ([3]; 10-300 μg): no treatment related signs | systemic side effects ([3]; 10-300 μg): No treatment related systemic side effects | average duration of hyperalgesia ([3]; all cases): less than thirty minutes | gross and microscopic pathology ([3]; knee replaced 2-14 days after dosing): normal | effect on pain score and use of rescue ([4]; 1000 μg into the wound prior to wound closure): reduced both pain score as well as the use of rescue | time at which subject required rescue ([4]; 1000 μg, individual subjects): 1 h and 4 h and 5 h and 8 h and 12 h | VAS pain score at operation site ([4]; 8 hr): 5.5 +/− 2.3 | VAS pain score at operation site ([4]; 12 hr): 8.2 +/− 3.8 | VAS pain score at operation site ([4]; 24 hr): 1.9 +/− 1.0 | VAS pain score at operation site ([4]; 48 hr): 5.9 +/− 2.5 | effect on pain threshold ([5]; final doses 50 mg/kg or greater): pain threshold elevated | effect on radiation induced hyperalgesia and pain threshold ([5]; final doses of 25 mg/kg or less, prior to ultra violet radiation): prevented radiation induced hyperalgesia, but did not elevate the pain threshold above normal range | solubility in alcohol, ether, benzene and chloroform [6]: freely soluble | plasma concentrations compared with 100 μg or 300 μg dose groups [7]: clearly lower | VAS reduction, prior to administration vs day of surgery ([8]; 9 active patients of 4, 7 and 14 day cohorts, 10-300 μg pooled): 62±14% | median decrease from baseline to pre-operative time point in VAS for pain at target knee vs placebo ([8]; all 3 capsaicin dose groups): substantially greater | treatment related indication of efficacy (VAS) ([8]; any of the dose levels 10, 100, 300 μg): No clear treatment related indication of efficacy
